Source: US4051253A, “Microbicidal nitrofuryl compounds” (Byk Gulden Lomberg Chemische Fabrik GmbH, priority 1974, dated 1977)
Read-outs that look alike come from different tables or passages of the source.

Columns and labels:
enterococci = experiment: microbe, parasite or virus in culture; format: cell-based; details: for MIC: read-out: Minimum inhibiting concentration (MHK), series dilution test
in vivo = details: mouse
S. typhimurium G 46 = details: in vivo
streptoc. group B 779 = experiment: microbe, parasite or virus in culture; format: cell-based; details: for MBC: read-out: Concentration from which subcultures no longer started; for MIC: read-out: Minimum inhibiting concentration (MHK), series dilution test
C. Albicans 49 = experiment: microbe, parasite or virus in culture; format: cell-based; details: Candida albicans; for MIC: read-out: Minimum inhibiting concentration (MHK), series dilution test
E. coli 6106 = experiment: microbe, parasite or virus in culture; format: cell-based; details: for MIC: read-out: Minimum inhibiting concentration (MHK), series dilution test
streptococci group A 807 = experiment: microbe, parasite or virus in culture; format: cell-based; details: for MIC: read-out: Minimum inhibiting concentration (MHK), series dilution test
[1] = tested on: Serratia marcescens strain HY/a 21
[2] = tested on: 9 bacteria and 2 yeast strains; experiment: In vitro tests with 9 bacteria and 2 yeast strains (summary); format: cell-based; details: even with the high concentration of 500 μg/ml
Staph. aur. PCI 1203 = experiment: microbe, parasite or virus in culture; format: cell-based; details: for MBC: read-out: Concentration from which subcultures no longer started; for MIC: read-out: Minimum inhibiting concentration (MHK), series dilution test
Ps. aeruginosa 2 = experiment: microbe, parasite or virus in culture; format: cell-based; details: for MIC: read-out: Minimum inhibiting concentration (MHK), series dilution test
Trichomonas foetus = experiment: Infection tests with Trichomonas foetus in mice; format: in vivo; details: for % of Animals Dying After Infection (Mean Value): stomach tube, 3 successive days, NMRI mice; for animals survived / survival rate: dose of 6.25 mg/kg, mice infected with T. foetus
Klebs. pneum. PCI 602 = experiment: microbe, parasite or virus in culture; format: cell-based; details: for MBC: read-out: Concentration from which subcultures no longer started; for MIC: read-out: Minimum inhibiting concentration (MHK), series dilution test
Staph. aur. SG 511 = experiment: microbe, parasite or virus in culture; format: cell-based; details: for MIC: read-out: Minimum inhibiting concentration (MHK), series dilution test
streptococci group C 805 = experiment: microbe, parasite or virus in culture; format: cell-based; details: for MBC: read-out: Concentration from which subcultures no longer started; for MIC: read-out: Minimum inhibiting concentration (MHK), series dilution test
C. Paracrusei 45 = experiment: microbe, parasite or virus in culture; format: cell-based; details: for MBC: read-out: Concentration from which subcultures no longer started; for MIC: read-out: Minimum inhibiting concentration (MHK), series dilution test
[3] = 24 h, read-out: Concentration from which subcultures no longer started, subcultures applied after 24 h, read after 24 h
[4] = 48 h, read-out: Concentration from which subcultures no longer started, subcultures applied after 48 h, read after 48 h
[5] = read-out: Concentration from which subcultures no longer started, subcultures applied after 24 h, read after 48 h
[6] = read-out: Concentration from which subcultures no longer started, subcultures applied after 48 h, read after 24 h
[7] = subcultures applied after 48 h, read after 24 h

Work on `Cc1ncc([N+](=O)[O-])n1CCO` [Metronidazol, reference compound] yielded an MBC (enterococci; [3]) of over 500 µg/mL, an MIC (enterococci; 24 h) of over 500 µg/mL and an MBC (enterococci; [4]) of over 500 µg/mL. It also gave an MIC (enterococci; 48 h) of over 500 µg/mL, an MBC (enterococci; [5]) of over 500 µg/mL and an MBC (enterococci; [6]) of over 500 µg/mL. For the same molecule, the LD50 (in vivo) was over 2000 mg/kg, the “Mutation frequency in test animals” value (S. typhimurium G 46) was 4.6 . 10^-7 and the MBC (streptoc. group B 779; 24 h) was over 500 µg/mL. It also gave an MIC (streptoc. group B 779; 24 h) of over 500 µg/mL, an MBC (streptoc. group B 779; 48 h) of over 500 µg/mL and an MIC (streptoc. group B 779; 48 h) of over 500 µg/mL. The MBC (streptoc. group B 779) was over 500 µg/mL, the “Concentration from which subcultures no longer started” value (streptoc. group B 779; [7]) was over 500 µg/mL and the MBC (C. Albicans 49; [3]) was over 500 µg/mL. For the same molecule, the MIC (C. Albicans 49; 24 h) was over 500 µg/mL, the MBC (C. Albicans 49; [4]) was over 500 µg/mL and the MIC (C. Albicans 49; 48 h) was over 500 µg/mL. The MBC (C. Albicans 49; [5]) was over 500 µg/mL, the MBC (C. Albicans 49; [6]) was over 500 µg/mL and the MBC (E. coli 6106; Escherichia coli, 6106, 24 h, read-out: Concentration from which subcultures no longer started) was over 500 µg/mL. The MIC (E. coli 6106; Escherichia coli, 6106, 24 h) was over 500 µg/mL, the MBC (E. coli 6106; Escherichia coli, 6106, 48 h, read-out: Concentration from which subcultures no longer started) was over 500 µg/mL and the MIC (E. coli 6106; Escherichia coli, 6106, 48 h) was over 500 µg/mL. The MBC (E. coli 6106; Escherichia coli, 6106, read-out: Concentration from which subcultures no longer started) was over 500 µg/mL, the “Concentration from which subcultures no longer started” value (E. coli 6106; [7]) was over 500 µg/mL and the MBC (streptococci group A 807; [3]) was over 500 µg/mL. It also gave an MIC (streptococci group A 807; 24 h) of over 500 µg/mL, an MBC (streptococci group A 807; [4]) of over 500 µg/mL and an MIC (streptococci group A 807; 48 h) of over 500 µg/mL. The MBC (streptococci group A 807; [5]) was over 500 µg/mL, the MBC (streptococci group A 807; [6]) was over 500 µg/mL and the “Mutants, Test” value [1] was 5.9 × 10^2 colonies/ml. The Mutation frequency [1] was 3.1 × 10^-6, the “in vitro antibacterial/antiyeast effect (in words)” value [2] was “ineffective” and the MBC (Staph. aur. PCI 1203; 24 h) was over 500 µg/mL. It also gave an MIC (Staph. aur. PCI 1203; 24 h) of over 500 µg/mL, an MBC (Staph. aur. PCI 1203; 48 h) of over 500 µg/mL and an MIC (Staph. aur. PCI 1203; 48 h) of over 500 µg/mL. The MBC (Staph. aur. PCI 1203) was over 500 µg/mL, the “Concentration from which subcultures no longer started” value (Staph. aur. PCI 1203; [7]) was over 500 µg/mL and the MBC (Ps. aeruginosa 2; Pseudomonas aeruginosa, 2, 24 h, read-out: Concentration from which subcultures no longer started) was over 500 µg/mL. For the same molecule, the MIC (Ps. aeruginosa 2; Pseudomonas aeruginosa, 2, 24 h) was over 500 µg/mL, the MBC (Ps. aeruginosa 2; Pseudomonas aeruginosa, 2, 48 h, read-out: Concentration from which subcultures no longer started) was over 500 µg/mL and the MIC (Ps. aeruginosa 2; Pseudomonas aeruginosa, 2, 48 h) was over 500 µg/mL. The MBC (Ps. aeruginosa 2; Pseudomonas aeruginosa, 2, read-out: Concentration from which subcultures no longer started) was over 500 µg/mL, the “Concentration from which subcultures no longer started” value (Ps. aeruginosa 2; [7]) was over 500 µg/mL and the “% of Animals Dying After Infection (Mean Value)” value (Trichomonas foetus; 6.25 mg/kg) was 90%. The “% of Animals Dying After Infection (Mean Value)” value (Trichomonas foetus; 12.5 mg/kg) was 80%, the “% of Animals Dying After Infection (Mean Value)” value (Trichomonas foetus; 25 mg/kg) was 70% and the “% of Animals Dying After Infection (Mean Value)” value (Trichomonas foetus; 50 mg/kg) was 15%. For the same molecule, the “% of Animals Dying After Infection (Mean Value)” value (Trichomonas foetus; 75 mg/kg) was 0%, the “% of Animals Dying After Infection (Mean Value)” value (Trichomonas foetus; 100 mg/kg) was 4% and the “animals survived / survival rate” value (Trichomonas foetus) was 10%. The MBC (Klebs. pneum. PCI 602; 24 h) was over 500 µg/mL, the MIC (Klebs. pneum. PCI 602; 24 h) was over 500 µg/mL and the MBC (Klebs. pneum. PCI 602; 48 h) was over 500 µg/mL. For the same molecule, the MIC (Klebs. pneum. PCI 602; 48 h) was over 500 µg/mL, the MBC (Klebs. pneum. PCI 602) was over 500 µg/mL and the “Concentration from which subcultures no longer started” value (Klebs. pneum. PCI 602; [7]) was over 500 µg/mL. The MBC (Staph. aur. SG 511; [3]) was over 500 µg/mL, the MIC (Staph. aur. SG 511; 24 h) was over 500 µg/mL and the MBC (Staph. aur. SG 511; [4]) was over 500 µg/mL. For the same molecule, the MIC (Staph. aur. SG 511; 48 h) was over 500 µg/mL, the MBC (Staph. aur. SG 511; [5]) was over 500 µg/mL and the MBC (Staph. aur. SG 511; [6]) was over 500 µg/mL. The MBC (streptococci group C 805; 24 h) was over 500 µg/mL, the MIC (streptococci group C 805; 24 h) was over 500 µg/mL and the MBC (streptococci group C 805; 48 h) was over 500 µg/mL. The MIC (streptococci group C 805; 48 h) was over 500 µg/mL, the MBC (streptococci group C 805) was over 500 µg/mL and the “Concentration from which subcultures no longer started” value (streptococci group C 805; [7]) was over 500 µg/mL. For the same molecule, the MBC (C. Paracrusei 45; 24 h) was over 500 µg/mL, the MIC (C. Paracrusei 45; 24 h) was over 500 µg/mL and the MBC (C. Paracrusei 45; 48 h) was over 500 µg/mL. For the same molecule, the MIC (C. Paracrusei 45; 48 h) was over 500 µg/mL, the MBC (C. Paracrusei 45) was over 500 µg/mL and the “Concentration from which subcultures no longer started” value (C. Paracrusei 45; [7]) was over 500 µg/mL.

In the case of `CCc1ccccc1C(=O)NN=CC=Cc1ccc([N+](=O)[O-])o1` [B, 2-[(o-ethylbenzoylhydrazono)propen-1-yl]-5-nitrofuran], the LD50 (in vivo) is reported as over 2000 mg/kg, the “% of Animals Dying After Infection (Mean Value)” value (Trichomonas foetus; 1.56 mg/kg) is reported as 86% and the “% of Animals Dying After Infection (Mean Value)” value (Trichomonas foetus; 3.12 mg/kg) is reported as 62%. The “% of Animals Dying After Infection (Mean Value)” value (Trichomonas foetus; 6.25 mg/kg) was 46%, the “% of Animals Dying After Infection (Mean Value)” value (Trichomonas foetus; 12 mg/kg) was 6% and the “% of Animals Dying After Infection (Mean Value)” value (Trichomonas foetus; 25 mg/kg) was 0%. The “animals survived / survival rate” value (Trichomonas foetus) was 54% and the “activity against T. foetus compared with metronidazol (in words)” value (Trichomonas foetus; infected mice) was “substantially better activity in mice infected with T. foetus”.
